The nature of assay [1]: Nitrocellulose-filter trapping of 3H-labeled heparin bound to TTR peptides. The note with it: pH 5.0, 3H-labeled heparin 1500 cpm. The assay is classed as binding. The method, then: (A) TTR amino acid sequence where histidine “(+)” and other basic amino acids “+” are marked. (B) Equal mole of TTR-peptides or full-length protein (with or without acidic dissociation), were incubated with ^3H-labeled heparin (1500 cpm) at pH 5.0. The amount of ^3H-labeled heparin bound to the peptides was analyzed using a nitrocellulose-filter trapping method.
To characterize the TTR-heparin interaction, we incubated TTR and its peptide fragments with ^3H-heparin. The binding was analyzed by a nitrocellulose-filter trapping method (18). […] This heparin-binding peptide contains three basic amino acids, including a histidine that likely contributed to the pH dependency seen in the TTR-heparin/HS interaction. This selective binding propy was further verified by SPR analysis (FIG. 9).

Assay [2] addresses T1, dissociated TTR immobilized onto a Biacore sensor chip (Homo sapiens, UniProt P02766).
T1 construct: made in house; host or cells: bacteria
Nature of the assay: Surface plasmon resonance (Biacore), heparin/HS over immobilized TTR. The assay is classed as binding. Here is the method:
(A) Dissociated TTR was immobilized onto a Biacore sensor chip and heparin (10 μM) was allowed to interact with the immobilized TTR in neutral or in mildly acidic conditions. (B) HS II (10 μM) binding to TTR at different pH was monitored and the response for each sample is expressed as response units (RU). […] (C) TTR (50 μM) incubated with heparin or HS II for 7 days at pH 5.0 or pH 7.4 was analyzed by ThT fluorescence. Data represent triplicate experiments (means±SEM).
Dissociated TTR was immobilized onto a Biacore sensor chip. Heparin (A), HS II (B) or HS I (C) were injected in a concentration series (ranging from 0.001-70 μM) over the surface at pH 5.0. The response for each concentration was measured at the steady-state region of the curve. The apparent equilibrium dissociation constant (KD) was calculated by plotting the response at steady-state for each concentration versus heparin/HS concentration. The data were fitted to the equation: Response=(Rmax*C)/(KD+C), where C is the concentration of heparin/HS. Two analyte flow rates (20 and 30 μl/min) were tested to assess possible effects of mass transport limitations in the system. […] The presented values are average value of three independent experiments.
(A) Equal amount of dissociated or native protein was immobilized onto a Biacore sensor chip and HS II was allowed to interact with the immobilized TTR at pH 5.0. (B) The values of the HS II-TTR interaction signal were obtained by repeated experiments using three chips with different ligand densities (250-3000 RU). The signals were normalized to a ligand density of 1000 RU and average value is shown. Statistical analysis was done by t test.
Interaction of TTR with heparin/HS was evaluated using a Biosensor system (Biacore2000). TTR was dissociated in acidic buffer (pH 2.7) and then diluted into a 50 mM NaAc (pH 5.0) coupling buffer and immobilized onto a CM5 sensor chip to a level of 3000 RU using an amine-coupling kit (GE Healthcare, Uppsala, Sweden). For binding and kinetic analysis, heparin or HS was injected (concentrations indicated in figure legend) over the surface and equilibrated at different pH. The surface was regenerated after each sample with a 30 s wash step of 0.5 M NaCl. All obtained sensorgrams were double-reference subtracted in Biacore evaluation software 2.0, using the reference flow cell and buffer blank sample.
Background: Surface plasmon resonance follows binding to a sensor surface in real time, without labels.

Assay [3] can be described thus: SPR analysis of TTR peptides binding to immobilized heparin. The note with it: pH 5.0, peptide conc. 25 μg/ml, flow rate 20 μl/min. The method, then:
Heparin was immobilized onto a Biacore sensor chip (CM5) using the surface thiol coupling kit (GE Healthcare). Peptides derived from regions on the TTR sequence (FIG. 5A) containing a histidine residue (24-35, 51-61 and 84-94), were allowed to interact with the heparin surface at pH 5.0 (peptide conc. 25 μg/ml; flow rate 20 μl/min).

As to “24-35 peptide containing the V30M mutation: TTR 24-35 peptide with the V30M mutation associated with familial amyloid neuropathy (PAINVAMHVFRK; UniProt P02766 44-55, looked up, variant V30M)”, the “Binding of 3H-labeled heparin to the peptide” value in assay [1] is “substantially lower binding to heparin compared to the WT peptide”.
For the molecule `Cc1ccc2c(c1)sc(-c1ccc(N(C)C)cc1)[n+]2C.[Cl-]` [Thioflavin T], in assay [2] (Thioflavin T 50 μM), the “Binding to surface immobilized with dissociated TTR (SPR)” value is given as “no binding”. The “Binding to surface immobilized with aggregated TTR (SPR)” value in assay [2] (Thioflavin T injection) is “significant binding”.
Take “PAINVAVHVFRK [peptide of aa 24-35, Synthesized peptide of aa 24-35 of TTR]”: in assay [3], the “Interaction of the peptide with the heparin surface (SPR)” value is on record as “interacted with heparin”. For the same molecule, the “Binding of 3H-labeled heparin to the peptide” value in assay [1] is “bound to heparin”.
